Among the data in PubChem BioAssay AID652188 (Johns Hopkins Ion Channel Center, 2013) are flux ratio, lower = inhibition and IC50 values, retold here.

Structures are written as SMILES. Activity calls are given as the source filed them.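 How the source made its calls: active means peak TASK1 channel inhibition over 30% at some tested dose, plus a fitted dose response curve; inactive means no inhibition at any dose, or no curve fitted.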

Assay [1] in a line: nonspecific flux block, untransfected cells – cell-based, FluxOR thallium flux, CRC, counter-screen for TASK1 inhibitor project, SAR follow-up (AID 652188). The following applies: CHO parental cells, FluxOR thallium flux counter-screen; at 30 µM (top of the series).
Assay [2] deals with CHO parental cells, FluxOR thallium flux counter-screen. The assay is described as above.

With `COc1ccc(F)cc1C(=O)Nc1cccc(NC(=O)c2cccc(C)c2)c1`, the flux ratio, lower = inhibition in assay [1] is 0.311 (inactive).
`Cc1cccc(C(=O)Nc2cccc(NC(=O)c3cccs3)c2)c1`: the flux ratio, lower = inhibition in assay [1] is 0.334 (inactive).
`COc1cnccc1C(=O)Nc1cccc(NC(=O)c2cccc(C)c2)c1`: the flux ratio, lower = inhibition in assay [1] is 0.339 (inactive).
In the case of `Cc1cccc(C(=O)Nc2cccc(NC(=O)c3cccc(F)c3)c2)c1`, in assay [1], the flux ratio, lower = inhibition was 0.313 (inactive).
Still for that read-out and setting: as for `Cc1cccc(C(=O)Nc2cccc(NC(=O)c3ccccc3)c2)c1`, the figure is 0.319 (inactive).
Consider `Cc1cccc(C(=O)Nc2cccc(NC(=O)c3cccc(C(F)(F)F)c3)c2)c1`, for which the flux ratio, lower = inhibition in assay [1] is 0.304 (inactive).
Still for that read-out and setting: in the case of `CCCC(=O)C1CCN(c2ncnc3c2CN(C(=O)c2ccc(-c4ccccc4)cc2)CC3)CC1` it was 0.302 (inactive).
For `COc1ccccc1C(=O)Nc1cccc(NC(=O)c2cccc(C)c2)c1`, the flux ratio, lower = inhibition in assay [1] is 0.322 (inactive).
For `Cc1cccc(C(=O)Nc2cccc(NC(=O)c3ccncc3)c2)c1`, the flux ratio, lower = inhibition in assay [1] is 0.32 (inactive).
With `O=C(Nc1cccc(NC(=O)c2ccccc2)c1)c1ccccc1`, in assay [2], the IC50 (usually the concentration that inhibits the measured activity by half) was 240 nM.
On to `COc1c(F)cccc1C(=O)Nc1cccc(NC(=O)c2cccc(C)c2)c1`, for which the flux ratio, lower = inhibition in assay [1] is 0.317 (inactive).
On to `COc1ccccc1C(=O)Nc1cc(NC(=O)c2cccc(C)c2)ccc1F`, for which the flux ratio, lower = inhibition in assay [1] is 0.306 (inactive).
Regarding `CCOc1ccccc1C(=O)Nc1cccc(NC(=O)c2cccc(C)c2)c1`, the IC50 in assay [2] was 1240 nM.
For `COc1ccccc1C(=O)Nc1cc(NC(=O)c2ccccc2C(C)C)ccc1F`, the flux ratio, lower = inhibition in assay [1] is 0.298 (inactive).
On the same count and under the same terms, as for `O=C(Nc1cccc(NC(=O)c2cccc(F)c2)c1)c1ccccc1`, the figure is 0.326 (inactive); as for `COc1ccc(CC(=O)NCc2ccccc2-c2ccccc2C(=O)NCc2ccc(F)cc2F)cc1`, 0.295 (inactive).
